Measured values: US10633389B2, “CARM1 inhibitors and uses thereof” (Epizyme, Inc., priority 2013, dated 2020)

Tested on: asymmetric di-methyl PABP1 in RKO cells
Experiment: RKO methylation assay, In Cell Western (ICW) for asymmetric di-methyl PABP1
Assay type: cell-based
Conditions: Homo sapiens, RKO, Cellular potencies, ICW PABP1me2a
Procedure, shortened: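 In-cell Western on fixed RKO cells after 48 h compound exposure: anti-asymmetric di-methyl PABP1 signal at 800 nm over DRAQ5 DNA signal at 700 nm. Percent inhibition set between DMSO wells and wells with 20 μM reference compound; IC50 curves fitted in triplicate.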

Row | Structure (SMILES) | IC50
1 | CNCC(O)COc1cccc(-c2nc(NCC3CCOCC3)c(C)c(-c3c(C)noc3C)n2)c1 (stereo not drawn) [Example 88-1a] | < 5 µM
2 | CCOC(=O)N1CCC(Nc2nc(-c3cc(OC[C@H](O)CNC)ccc3Cl)nc(-c3c(C)noc3C)c2C)CC1 [Example 88-3] | < 5 µM
3 | CNC[C@H](O)COc1ccc(Cl)c(-c2nc(NC3CCN(C(=O)OC)CC3)c(C)c(-c3c(C)noc3C)n2)c1 [Example 89-3] | < 5 µM
4 | CNC[C@H](O)COc1ccc(Cl)c(-c2nc(-c3c(C)noc3C)c(C)c(N3Cc4ccncc4C3)n2)c1 [Example 90-3] | < 5 µM
5 | CNCC(O)COc1cccc(-c2nc(-c3c(C)noc3C)cc(N3CCN(C(=O)N(C)C)[C@@H](C)C3)n2)c1 (stereo partly drawn) [Example 91-1a] | < 5 µM
6 | CNC[C@H](O)COc1ccc(F)c(-c2nc(-c3c(C)noc3C)c(C)c(N3Cc4cccnc4C3)n2)c1 [Example 91-3] | < 5 µM
7 | CNCC(O)COc1cccc(-c2nc(-c3c(C)noc3C)cc(N3CCN(S(C)(=O)=O)[C@@H](C)C3)n2)c1 (stereo partly drawn) [Example 92-1a] | < 5 µM
8 | CNC[C@H](O)COc1ccc(Cl)c(-c2nc(-c3c(C)noc3C)c(C)c(N3Cc4cccnc4C3)n2)c1 [Example 92-3] | < 5 µM
9 | CNCC(O)COc1cccc(-c2nc(-c3c(C)noc3C)cc(N3CCN(C)[C@@H](C)C3)n2)c1 (stereo partly drawn) [Example 93-1a] | < 5 µM
10 | CNCC(O)COc1cccc(-c2nc(-c3c(C)noc3C)cc(N3C[C@@H]4C[C@H]3CN4C(=O)OC)n2)c1 (stereo partly drawn) [Example 94-1a] | < 5 µM
11 | CNC[C@H](O)COc1ccc(Cl)c(-c2nc(N[C@@H]3CCOC3)c(C)c(-c3c(C)noc3C)n2)c1 [Example 94-3] | < 5 µM
12 | CNCC(O)COc1cccc(-c2nc(NC3CCOCC3)c(F)c(-c3c(C)noc3C)n2)c1 (stereo not drawn) [Example 96-1a] | < 5 µM
13 | CNC[C@H](O)COc1ccc(Cl)c(-c2nc(NCC3COCCO3)c(C)c(-c3c(C)noc3C)n2)c1 (stereo partly drawn) [Example 96-3] | < 5 µM
14 | CNCC(O)COc1cccc(-c2nc(-c3c(C)noc3C)c(F)c(N3CCN(C(=O)OC)CC3)n2)c1 (stereo not drawn) [Example 97-1a] | < 5 µM
15 | CNC[C@@H](O)COc1ccc(F)c(-c2nc(N[C@H]3CCN(C4CC4)C[C@H]3F)c(C)c(-c3c(C)noc3C)n2)c1 [Example 98-3] | < 5 µM
16 | CNCC(O)COc1cccc(-c2nc(NCCCN3CCCCCC3=O)cc(-c3c(C)noc3C)n2)c1 (stereo not drawn) [Example 99-1a] | < 5 µM
17 | CNCC(O)COc1cccc(-c2nc(NC3(C)CCOCC3)c(C)c(-c3c(C)noc3C)n2)c1 (stereo not drawn) [Example 101-1a] | < 5 µM
18 | CNC[C@H](O)COc1ccc(Cl)c(-c2nc(N[C@H]3CCN(C(=O)OC)[C@H](C)C3)c(C)c(-c3c(C)noc3C)n2)c1 [Example 103-3] | < 5 µM

Row | Structure (SMILES) | IC50
19 | CCNC(=O)N1CCN(c2nc(-c3cccc(OCC(O)CNC)c3)nc(-c3c(C)noc3C)c2C)CC1 (stereo not drawn) [Example 106-1a] | 5 to 10 µM
20 | CNC[C@H](O)COc1ccc(F)c(-c2nc(-c3c(C)noc3C)c(C)c(N3CCC4(CCN(C(=O)OC)C4)C3)n2)c1 (stereo partly drawn) [Example 106-3] | < 5 µM
21 | CNCC(O)COc1cccc(-c2nc(-c3c(C)noc3C)c(C)c(N3CCN(C(=O)C4CCOCC4)CC3)n2)c1 (stereo not drawn) [Example 108-1a] | < 5 µM
22 | CNC[C@@H](O)COc1ccc(Cl)c(-c2nc(-c3c(C)noc3C)c(C)c(N3CC4(CCN(C(=O)OC)CC4)C3)n2)c1 [Example 109-3] | < 5 µM
23 | CNCC(O)COc1cccc(-c2nc(-c3c(C)noc3C)c(C)c(N3CCN4C(=O)OC[C@@H]4C3)n2)c1 (stereo partly drawn) [Example 110-1a] | 5 to 10 µM
24 | CNC[C@@H](O)COc1ccc(Cl)c(-c2nc(N[C@H]3C[C@@](C)(OC)C3)c(C)c(-c3c(C)noc3C)n2)c1 [Example 110-3] | < 5 µM
25 | CNCC(O)COc1cccc(-c2nc(-c3c(C)noc3C)c(C)c(N3CC[C@@H](S(C)(=O)=O)C3)n2)c1 (stereo partly drawn) [Example 111-1a] | 5 to 10 µM
26 | CNCC(O)COc1cccc(-c2nc(-c3c(C)noc3C)cc(-c3cnc4cnccn34)n2)c1 (stereo not drawn) [Example 112-1a] | 10 to 20 µM
27 | CCOC(=O)N1CC[C@@H](Nc2nc(-c3cc(OC[C@H](O)CNC)ccc3Cl)nc(-c3c(C)noc3C)c2C)C1 [Example 112-3] | < 5 µM
28 | CNC[C@@H](O)COc1ccc(F)c(-c2nc(-c3c(C)noc3C)c(C)c(N3Cc4cccnc4C3)n2)c1 [Example 114-3] | < 5 µM
29 | CNCC(O)COc1cccc(-c2nc(NCC3(C)CCOCC3)c(C)c(-c3c(C)noc3C)n2)c1 (stereo not drawn) [Example 115-1a] | < 5 µM
30 | CNCC(O)COc1cccc(-c2nc(-c3c(C)noc3C)c(C)c(N3C[C@H]4CC[C@@H](C3)N4C)n2)c1 (stereo partly drawn) [Example 116-1a] | 5 to 10 µM
31 | CNC[C@@H](O)COc1ccc(Cl)c(-c2nc(OC[C@H]3CCCO3)c(C)c(-c3c(C)noc3C)n2)c1 [Example 116-3] | < 5 µM
32 | CNCC(O)COc1cccc(-c2nc(-c3c(C)noc3C)c(C)c(N3[C@@H]4CC[C@H]3CN(C)C4)n2)c1 (stereo partly drawn) [Example 117-1a] | 10 to 20 µM
33 | CNCC(O)COc1cccc(-c2nc(-c3c(C)noc3C)cc(N3CCN(C(=O)N(C)C)CC3)n2)c1 (stereo not drawn) [Example 120-1a] | < 5 µM
34 | CNC[C@@H](O)COc1ccc(Cl)c(-c2nc(-c3c(C)noc3C)c(C)c(N3CC4(CCOC4)C3)n2)c1 [Example 120-3] | < 5 µM
35 | CNC[C@@H](O)COc1ccc(Cl)c(-c2nc(-c3c(C)noc3C)c(C)c(N3CC4(CCCO4)C3)n2)c1 [Example 121-3] | < 5 µM
36 | CNCC(O)COc1cccc(-c2nc(-c3c(C)noc3C)c(C)c(N3CCO[C@H](CNC)C3)n2)c1 (stereo partly drawn) [Example 124-1a] | 5 to 10 µM

Second part, the compound after the results:

Row | IC50 | Structure (SMILES)
37 | < 5 µM | CNCC(O)COc1cccc(-c2nc(-c3c(C)noc3C)c(C)c(N(C)C3CCN(C(=O)OC)CC3)n2)c1 (stereo not drawn) [Example 89-1a]
38 | < 5 µM | CNCC(O)COc1cccc(-c2nc(-c3c(C)noc3C)cc(N(C)C3CCN(C(=O)OC)CC3)n2)c1 (stereo not drawn) [Example 90-1a]
39 | < 5 µM | CCOC(=O)N1CCOC[C@@H]1CNc1nc(-c2cc(OCC(O)CNC)ccc2Cl)nc(-c2c(C)nsc2C)c1C (stereo partly drawn) [Example 93-3]
40 | 10 to 20 µM | CNCC(O)COc1cccc(-c2nc(-c3c(C)noc3C)cc(N3C[C@@H]4C[C@H]3CN4C(C)=O)n2)c1 (stereo partly drawn) [Example 95-1a]
41 | < 5 µM | CNC[C@H](O)COc1ccc(Cl)c(-c2nc(-c3c(C)noc3C)c(C)c(N(C)[C@H]3C[C@@](C)(OC)C3)n2)c1 [Example 95-3]
42 | < 5 µM | CNCC(O)COc1ccc(Cl)c(-c2nc(NC3CCOCC3)c(C)c(-c3c(C)nsc3C)n2)c1 (stereo not drawn) [Example 97-3]
43 | < 5 µM | CNCC(O)COc1cccc(-c2nc(-c3c(C)noc3C)cc(N(CCOC)C3CCOCC3)n2)c1 (stereo not drawn) [Example 98-1a]
44 | < 5 µM | CNC[C@H](O)COc1ccc(F)c(-c2nc(N[C@H]3CCN(C4CC4)C[C@H]3F)c(C)c(-c3c(C)noc3C)n2)c1 [Example 99-3]
45 | 5 to 10 µM | CNCC(O)COc1cccc(-c2nc(-c3c(C)noc3C)cc(N3C[C@H]4C[C@@H]3CN4S(C)(=O)=O)n2)c1 (stereo partly drawn) [Example 100-1a]
46 | < 5 µM | CNC[C@@H](O)COc1ccc(Cl)c(-c2nc(N[C@@H]3CCOC3)c(C)c(-c3c(C)noc3C)n2)c1 [Example 100-3]
47 | < 5 µM | CNC[C@@H](O)COc1ccc(Cl)c(-c2nc(N[C@@H]3CCN(C(=O)OC)[C@@H](C)C3)c(C)c(-c3c(C)noc3C)n2)c1 [Example 101-3]
48 | < 5 µM | CNCC(O)COc1cccc(-c2nc(NC3CCN(C(=O)OC)CC3)cc(-c3c(C)noc3C)n2)c1 (stereo not drawn) [Example 102-1a]
49 | < 5 µM | CNC[C@@H](O)COc1ccc(Cl)c(-c2nc(N[C@H]3CCN(C(=O)OC)[C@H](C)C3)c(C)c(-c3c(C)noc3C)n2)c1 [Example 102-3]
50 | < 5 µM | CNCC(O)COc1cccc(-c2nc(-c3c(C)noc3C)cc(N3CCN(CCF)[C@@H](C)C3)n2)c1 (stereo partly drawn) [Example 103-1a]
51 | < 5 µM | CNCC(O)COc1cccc(-c2nc(-c3c(C)noc3C)cc(N3CCN(CC(F)(F)F)[C@@H](C)C3)n2)c1 (stereo partly drawn) [Example 104-1a]
52 | < 5 µM | CNC[C@@H](O)COc1ccc(Cl)c(-c2nc(NC3CCN(C(=O)OC)CC3)c(C)c(-c3c(C)noc3C)n2)c1 [Example 104-3]
53 | < 5 µM | CCOC(=O)N1CCC(Nc2nc(-c3cc(OC[C@@H](O)CNC)ccc3Cl)nc(-c3c(C)noc3C)c2C)CC1 [Example 105-3]
54 | < 5 µM | CNCC(O)COc1cccc(-c2nc(-c3c(C)noc3C)c(C)c(N3CCN(C(=O)C(F)F)CC3)n2)c1 (stereo not drawn) [Example 107-1a]
55 | < 5 µM | CNC[C@@H](O)COc1ccc(Cl)c(-c2nc(-c3c(C)noc3C)c(C)c(N3CC4(CCN(C5CC5)CC4)C3)n2)c1 [Example 108-3]
56 | 10 to 20 µM | CNCC(O)COc1cccc(-c2nc(-c3c(C)noc3C)cc(N3C[C@H]4C[C@@H]3CN4)n2)c1 (stereo partly drawn) [Example 109-1a]
57 | < 5 µM | CNC[C@@H](O)COc1ccc(Cl)c(-c2nc(N[C@H]3CCOC3)c(C)c(-c3c(C)noc3C)n2)c1 [Example 111-3]
58 | 10 to 20 µM | CNCC(O)COc1cccc(-c2nc(NCC3(O)CCOCC3)c(C)c(-c3c(C)noc3C)n2)c1 (stereo not drawn) [Example 114-1a]
59 | < 5 µM | CNC[C@@H](O)COc1ccc(Cl)c(-c2nc(-c3c(C)noc3C)c(C)c(N3CCC4(CC3)CN(C(=O)OC)C4)n2)c1 [Example 115-3]
60 | < 5 µM | CNC[C@@H](O)COc1ccc(Cl)c(-c2nc(OC[C@H]3CCOC3)c(C)c(-c3c(C)noc3C)n2)c1 [Example 117-3]
61 | < 5 µM | CNCC(O)COc1cccc(-c2nc(NC3CCN(C(=O)OC)CC3)c(C)c(-c3c(C)noc3C)n2)c1 (stereo not drawn) [Example 118-1a]
62 | < 5 µM | CNC[C@@H](O)COc1ccc(Cl)c(-c2nc(-c3c(C)noc3C)c(C)c(N3CC4(CCOCC4)C3)n2)c1 [Example 118-3]
63 | < 5 µM | CNC[C@@H](O)COc1ccc(Cl)c(-c2nc(-c3c(C)noc3C)c(C)c(N3CC4(CCCOC4)C3)n2)c1 [Example 119-3]
64 | < 5 µM | CNCC(O)COc1cccc(-c2nc(-c3c(C)noc3C)c(C)c(N3CCN(C(=O)OCCF)CC3)n2)c1 (stereo not drawn) [Example 121-1a]
65 | < 5 µM | CNC[C@@H](O)COc1ccc(Cl)c(-c2nc(-c3c(C)noc3C)c(C)c(N3CCc4nn(C)cc4C3)n2)c1 [Example 122-3]
66 | < 5 µM | CNCC(O)COc1ccc(C)c(-c2nc(NC3CCOC(C)C3)c(C)c(-c3c(C)noc3C)n2)c1 (stereo not drawn) [Example 124-3]
